# Experimental data from US20180194762A1 (Pharmacyclics LLC, priority 2017, published 2018).
# Where two headings read alike, the source gives them in different places.
# Columns and labels:
# Type in all cases: biochemical
# panel of kinases = target: T1, panel of kinases (Homo sapiens, UniProt P51813); experiment: Inhibition of a panel of kinases (in vitro HotSpot kinase assay, 33P-ATP, 1 μM ATP), other kinases; conditions: BMX wild-type, read-out: BMX-WT IC50
# T1 sequence (P51813 1-675): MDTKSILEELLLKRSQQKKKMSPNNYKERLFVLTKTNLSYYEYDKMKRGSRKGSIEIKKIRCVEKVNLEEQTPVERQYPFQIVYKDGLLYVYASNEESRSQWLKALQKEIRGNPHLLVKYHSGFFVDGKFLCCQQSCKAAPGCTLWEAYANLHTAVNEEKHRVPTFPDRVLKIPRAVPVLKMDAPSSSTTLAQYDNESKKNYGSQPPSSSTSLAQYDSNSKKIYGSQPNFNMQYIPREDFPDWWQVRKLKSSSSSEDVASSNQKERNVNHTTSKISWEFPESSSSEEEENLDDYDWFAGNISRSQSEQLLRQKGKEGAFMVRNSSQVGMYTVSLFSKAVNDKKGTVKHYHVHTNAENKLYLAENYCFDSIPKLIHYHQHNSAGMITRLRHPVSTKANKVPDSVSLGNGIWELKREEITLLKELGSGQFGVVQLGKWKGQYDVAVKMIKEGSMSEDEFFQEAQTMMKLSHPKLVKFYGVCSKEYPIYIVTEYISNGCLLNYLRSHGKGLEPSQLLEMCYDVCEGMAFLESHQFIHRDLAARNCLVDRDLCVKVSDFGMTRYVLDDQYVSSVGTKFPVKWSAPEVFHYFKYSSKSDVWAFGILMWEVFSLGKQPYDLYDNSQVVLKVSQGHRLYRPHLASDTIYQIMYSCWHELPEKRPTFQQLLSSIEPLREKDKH
# How it was run: (§1)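 Degree of kinase inhibition is determined in vitro using isolated enzymes, a matched substrate and radiolabelled ATP (1 μM).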
# TEC = target: T2, TEC (Homo sapiens, UniProt P42680); experiment: Inhibition of a panel of kinases (in vitro HotSpot kinase assay, 33P-ATP, 1 μM ATP); conditions: for IC50: HotSpot kinase assay, 1 μM ATP; for TEC/Btk: ratio of TEC IC50 to Btk IC50 (selectivity)
# T2 sequence (P42680 1-631): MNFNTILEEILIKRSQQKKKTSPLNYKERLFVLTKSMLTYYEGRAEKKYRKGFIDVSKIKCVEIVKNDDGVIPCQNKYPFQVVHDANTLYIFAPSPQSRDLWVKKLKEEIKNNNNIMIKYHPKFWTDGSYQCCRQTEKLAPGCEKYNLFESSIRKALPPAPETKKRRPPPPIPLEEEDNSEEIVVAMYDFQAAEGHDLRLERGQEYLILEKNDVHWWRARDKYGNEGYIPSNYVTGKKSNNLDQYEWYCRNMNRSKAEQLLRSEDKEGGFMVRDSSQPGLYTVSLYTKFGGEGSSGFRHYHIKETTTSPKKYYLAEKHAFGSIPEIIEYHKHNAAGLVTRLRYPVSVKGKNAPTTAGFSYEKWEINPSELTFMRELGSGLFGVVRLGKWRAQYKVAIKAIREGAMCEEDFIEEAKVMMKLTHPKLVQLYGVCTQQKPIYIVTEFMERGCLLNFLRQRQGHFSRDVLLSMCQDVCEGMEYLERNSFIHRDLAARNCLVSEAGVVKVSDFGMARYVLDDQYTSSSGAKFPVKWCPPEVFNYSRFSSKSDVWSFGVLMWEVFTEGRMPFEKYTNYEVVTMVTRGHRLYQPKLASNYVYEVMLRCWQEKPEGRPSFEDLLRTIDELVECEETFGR
# How it was run: as §1
# Btk = target: T3, Btk (Homo sapiens, UniProt Q06187); experiment: Btk in vitro inhibitory activity (one of Method A TR-FRET, Method B electrophoretic mobility shift, Method C radiometric filter binding)
# T3 construct: purified from insect cells as a full-length construct containing a N-terminal 6X-His tag; His6 (N); made in house; host or cells: insect cells (Method C)
# T3 sequence (Q06187 whole entry): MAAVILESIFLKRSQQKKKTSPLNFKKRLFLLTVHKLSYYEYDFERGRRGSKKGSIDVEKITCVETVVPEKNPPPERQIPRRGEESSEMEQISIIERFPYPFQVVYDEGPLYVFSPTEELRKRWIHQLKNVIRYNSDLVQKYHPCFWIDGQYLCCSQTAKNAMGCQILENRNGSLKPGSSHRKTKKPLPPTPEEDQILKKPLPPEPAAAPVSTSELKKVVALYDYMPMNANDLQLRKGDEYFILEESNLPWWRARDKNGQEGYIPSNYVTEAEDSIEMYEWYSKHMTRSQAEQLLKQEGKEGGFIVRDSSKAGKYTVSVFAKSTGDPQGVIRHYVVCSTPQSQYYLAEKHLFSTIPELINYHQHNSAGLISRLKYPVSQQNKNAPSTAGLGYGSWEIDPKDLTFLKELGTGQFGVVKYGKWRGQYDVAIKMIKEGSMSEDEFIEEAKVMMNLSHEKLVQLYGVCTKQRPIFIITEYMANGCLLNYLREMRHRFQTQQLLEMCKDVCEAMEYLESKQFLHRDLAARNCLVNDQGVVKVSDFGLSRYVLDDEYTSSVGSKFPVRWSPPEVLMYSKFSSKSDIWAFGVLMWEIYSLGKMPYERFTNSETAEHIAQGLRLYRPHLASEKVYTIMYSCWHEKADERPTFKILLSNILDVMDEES
# How it was run: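 Method A: TR-FRET with 0.5 nM Btk at [ATP]=Km, EDTA-quenched, 665/615 nm ratio; Ki(app) converted to IC50. Method B: 1 nM full-length His6 human BTK, 1 μM FAM peptide, pH 7.5, mobility-shift product/sum ratio, 12-point 4-parameter fit. Method C: radiometric filter binding, 8 nM His-tagged BTK, 0.2 mg/mL poly-Glu-Tyr.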
# [1] = wild-type Btk, read-out: Btk-WT IC50
# [2] = method is one of A, B or C, not stated which, read-out: IC50 values against Btk
SMILES,IC50 (panel of kinases),IC50 (TEC),IC50 (Btk; [1]),TEC/Btk (TEC),IC50 (Btk; [2])
"C=CC(=O)N(C)[C@@H]1CCN(c2n[nH]c3nccc(-c4ccc(CN(C)C(=O)c5nc(C(C)(C)C)no5)c(F)c4)c23)C1 [Example 338, 3-tert-butyl-N-{[2-fluoro-4-(3-{(3R)-3-[methyl(prop-2-enoyl)amino]pyrrolidin-1-yl}-1H-pyrazolo[3,4-b]pyridin-4-yl)phenyl]methyl}-N-methyl-1,2,4-oxadiazole-5-carboxamide]",28.3 nM,22.7 nM,0.0678 nM,–,–
"CNC1CCN(c2n[nH]c3nccc(-c4ccc(CN(C)C(=O)c5nc(C(C)(C)C)no5)c(F)c4)c23)C1 (centres unmarked) [Example 337, 3-tert-butyl-N-[(2-fluoro-4-{3-[3-(methylamino)pyrrolidin-1-yl]-1H-pyrazolo[3,4-b]pyridin-4-yl}phenyl)methyl]-N-methyl-1,2,4-oxadiazole-5-carboxamide]",5200 nM,8030 nM,2.35 nM,–,–
"CC(C)(C)c1noc(C(=O)NCc2ccc(-c3ccnc4[nH]nc(C5CC5)c34)cc2F)n1 [Example 255, 3-tert-butyl-N-{[4-(3-cyclopropyl-1H-pyrazolo[3,4-b]pyridin-4-yl)-2-fluorophenyl]methyl}-1,2,4-oxadiazole-5-carboxamide]",1360 nM,1630 nM,1.26 nM,1294,–
"CC(C)c1noc(C(=O)N[C@H](C)c2ccc(-c3ccnc4[nH]nc(N5CCS(=O)(=O)CC5)c34)cc2)n1 [Example 405, N-[(1R)-1-{4-[3-(1,1-dioxo-1λ^6-thiomorpholin-4-yl)-1H-pyrazolo[3,4-b]pyridin-4-yl]phenyl}ethyl]-3-(propan-2-yl)-1,2,4-oxadiazole-5-carboxamide]",3300 nM,2380 nM,31 nM,–,–
"CC(=O)N[C@@H]1CCN(c2n[nH]c3nccc(-c4ccc([C@@H](C)NC(=O)c5cc(C(C)(C)O)on5)c(F)c4)c23)C1 [Example 349, N-[(1R)-1-(4-{3-[(3R)-3-acetamidopyrrolidin-1-yl]-1H-pyrazolo[3,4-b]pyridin-4-yl}-2-fluorophenyl)ethyl]-5-(2-hydroxypropan-2-yl)-1,2-oxazole-3-carboxamide]",1330 nM,1480 nM,3.99 nM,–,–
"C=CC(=O)N1CC[C@@H](Nc2n[nH]c3nccc(-c4ccnc(N5CCn6c(cc7c6CC(C)(C)C7)C5=O)c4CO)c23)C1 [Example 298, 2-[3-(hydroxymethyl)-4-(3-{[(3R)-1-(prop-2-enoyl)pyrrolidin-3-yl]amino}-1H-pyrazolo[3,4-b]pyridin-4-yl)pyridin-2-yl]-7,7-dimethyl-3,4,7,8-tetrahydro-2H-cyclopenta[4,5]pyrrolo[1,2-a]pyrazin-1(6H)-one]",8030 nM,3280 nM,1.51 nM,–,–
C=CC(=O)N1CC[C@@H](Nc2n[nH]c3nccc(-c4ccc(CN5CCn6c(cc7c6CC(C)(C)C7)C5=O)c(F)c4)c23)C1 [Example 53],310 nM,152 nM,0.623 nM,244,< 10 nM
"CC(C)(C)c1ccc(C(=O)NCc2ccc(-c3ccnc4[nH]nc(N[C@@H]5CCNC5)c34)cc2F)cc1 [Compound 8, 4-tert-butyl-N-{[2-fluoro-4-(3-{[(3R)-pyrrolidin-3-yl]amino}-1H-pyrazolo[3,4-b]pyridin-4-yl)phenyl]methyl}benzamide]",> 10000 nM,> 10000 nM,144 nM,–,–

# Second part, the compound after the results:
IC50 (panel of kinases),IC50 (TEC),IC50 (Btk; [1]),TEC/Btk (TEC),IC50 (Btk; [2]),SMILES
> 10000 nM,> 10000 nM,> 10000 nM,–,–,"CC(C)(C)c1nc(NC(=O)Cc2ccc(-c3ccnc4[nH]nc(N[C@@H]5CCNC5)c34)cc2F)no1 [Example 123, N-(5-tert-butyl-1,2,4-oxadiazol-3-yl)-2-[2-fluoro-4-(3-{[(3R)-pyrrolidin-3-yl]amino}-1H-pyrazolo[3,4-b]pyridin-4-yl)phenyl]acetamide]"
3430 nM,1600 nM,1.96 nM,816,–,"C[C@H]1CC[C@@H](Nc2n[nH]c3nccc(-c4ccc(CNC(=O)c5nc(C(C)(C)C)no5)c(F)c4)c23)CN1C(=O)n1ccnc1 [Example 196, 3-tert-butyl-N-{[2-fluoro-4-(3-{[(3R,6S)-1-(1H-imidazole-1-carbonyl)-6-methylpiperidin-3-yl]amino}-1H-pyrazolo[3,4-b]pyridin-4-yl)phenyl]methyl}-1,2,4-oxadiazole-5-carboxamide]"
5530 nM,> 10000 nM,84.4 nM,>100,–,"C[C@H]1CC[C@@H](Nc2n[nH]c3nccc(-c4ccc(CNC(=O)c5nc(C(C)(C)C)no5)c(F)c4)c23)CN1 [Example 147, 3-tert-butyl-N-{[2-fluoro-4-(3-{[(3R,6S)-6-methylpiperidin-3-yl]amino}-1H-pyrazolo[3,4-b]pyridin-4-yl)phenyl]methyl}-1,2,4-oxadiazole-5-carboxamide]"
> 10000 nM,> 10000 nM,3.12 nM,>100,< 10 nM,"CN1CC[C@H](Nc2n[nH]c3nccc(-c4ccc(CNC(=O)c5nc(C(C)(C)C)no5)c(F)c4)c23)C1 [Example 166, 3-tert-butyl-N-{[2-fluoro-4-(3-{[(3S)-1-methylpyrrolidin-3-yl]amino}-1H-pyrazolo[3,4-b]pyridin-4-yl)phenyl]methyl}-1,2,4-oxadiazole-5-carboxamide]"
39 nM,20 nM,0.205 nM,98,–,"C=CC(=O)N1CC[C@@H](Nc2n[nH]c3nccc(-c4ccc(CNC(=O)c5noc(C(C)(C)C)n5)c(F)c4)c23)C1 [Compound 3, (R)—N-(4-(3-((1-acryloylpyrrolidin-3-yl)amino)-1H-pyrazolo[3,4-b]pyridin-4-yl)-2-fluorobenzyl)-5-(tert-butyl)-1,2,4-oxadiazole-3-carboxamide]"
8370 nM,6920 nM,11.7 nM,591,–,"CN1CCCN([C@@H]2CCN(c3n[nH]c4nccc(-c5ccc(CNC(=O)c6noc(C(C)(C)C)n6)c(F)c5)c34)C2)C1=O [Example 250, 5-tert-butyl-N-[(2-fluoro-4-{3-[(3R)-3-(3-methyl-2-oxo-1,3-diazinan-1-yl)pyrrolidin-1-yl]-1H-pyrazolo[3,4-b]pyridin-4-yl}phenyl)methyl]-1,2,4-oxadiazole-3-carboxamide]"
1230 nM,1320 nM,0.626 nM,–,–,"CC(C)(C)c1noc(C(=O)NCc2ccc(-c3ccnc4[nH]nc(N5CCC(N)C5)c34)cc2F)n1 (centres unmarked) [Example 330, N-({4-[3-(3-aminopyrrolidin-1-yl)-1H-pyrazolo[3,4-b]pyridin-4-yl]-2-fluorophenyl}methyl)-3-tert-butyl-1,2,4-oxadiazole-5-carboxamide]"
> 10000 nM,> 10000 nM,> 10000 nM,–,–,"C=CC(=O)N1CC(Nc2n[nH]c3nccc(-c4ccc(CNC(=O)c5ccc(C(C)(C)C)cc5)c(F)c4)c23)C1 [Example 106, 4-tert-butyl-N-{[2-fluoro-4-(3-{[1-(prop-2-enoyl)azetidin-3-yl]amino}-1H-pyrazolo[3,4-b]pyridin-4-yl)phenyl]methyl}benzamide]"
43 nM,99 nM,3.91 nM,25,< 10 nM,"C=CC(=O)N1CC[C@@H](Nc2n[nH]c3nccc(-c4ccc(CNC(=O)c5cnc(N(C)C)o5)c(F)c4)c23)C1 [Example 177, 2-(dimethylamino)-N-{[2-fluoro-4-(3-{[(3R)-1-(prop-2-enoyl)pyrrolidin-3-yl]amino}-1H-pyrazolo[3,4-b]pyridin-4-yl)phenyl]methyl}-1,3-oxazole-5-carboxamide]"
